Measurements from PMC6891286, “Towards the Development of an In vivo Chemical Probe for Cyclin G Associated Kinase (GAK)” (Molecules, 2019).

Experiments:
Test in all cases: KINOMEscan
Type in all cases: binding
NIK = biological target: T1, NIK (Homo sapiens, UniProt Q99558); settings: 35 at 1 µM; read-out: % inhibition
T1 construct: purchased Eurofins DiscoverX (KINOMEscan)
Procedure: (§1) KinomeScan Assay on 35 was performed as previously described at EuroFins DiscoverX (Fremont, CA, USA).

CDK11 = biological target: T2, CDK11 (Homo sapiens, UniProt Q9BWU1); settings: 35 at 1 µM; read-out: % inhibition
T2 construct: purchased Eurofins DiscoverX (KINOMEscan)
T2 sequence (Q9BWU1 whole entry): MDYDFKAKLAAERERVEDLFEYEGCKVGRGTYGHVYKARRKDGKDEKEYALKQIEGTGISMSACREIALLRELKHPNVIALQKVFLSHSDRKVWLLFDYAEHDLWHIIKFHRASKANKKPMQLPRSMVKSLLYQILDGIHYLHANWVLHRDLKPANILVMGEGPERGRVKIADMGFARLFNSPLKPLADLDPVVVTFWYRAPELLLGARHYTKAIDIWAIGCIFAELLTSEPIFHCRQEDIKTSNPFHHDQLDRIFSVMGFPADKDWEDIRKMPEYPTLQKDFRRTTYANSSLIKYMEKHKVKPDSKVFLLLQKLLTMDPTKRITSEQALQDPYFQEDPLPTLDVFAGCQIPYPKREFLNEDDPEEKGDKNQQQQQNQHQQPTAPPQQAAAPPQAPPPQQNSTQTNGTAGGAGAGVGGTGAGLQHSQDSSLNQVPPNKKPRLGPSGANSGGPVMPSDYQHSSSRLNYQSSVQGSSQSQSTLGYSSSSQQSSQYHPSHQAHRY
Procedure: as §1

[1] = biological target: T3, RSK2(Kin.Dom.2-C-terminal) (Homo sapiens, UniProt P51812); settings: 35 at 1 µM; read-out: % inhibition
T3 construct: RSK2(Kin.Dom.2-C-terminal); purchased Eurofins DiscoverX (KINOMEscan)
Procedure: as §1

MYLK4 = biological target: T4, MYLK4 (Homo sapiens, UniProt Q86YV6); settings: 35 at 1 µM; read-out: % inhibition
T4 construct: purchased Eurofins DiscoverX (KINOMEscan)
Procedure: as §1

PRKCE = biological target: T5, PRKCE (Homo sapiens, UniProt Q02156); settings: 35 at 1 µM; read-out: % inhibition
T5 construct: purchased Eurofins DiscoverX (KINOMEscan)
Procedure: as §1

MEK3 = biological target: T6, MEK3 (Homo sapiens, UniProt P46734); settings: 35 at 1 µM; read-out: % inhibition
T6 construct: purchased Eurofins DiscoverX (KINOMEscan)
T6 sequence (P46734 whole entry): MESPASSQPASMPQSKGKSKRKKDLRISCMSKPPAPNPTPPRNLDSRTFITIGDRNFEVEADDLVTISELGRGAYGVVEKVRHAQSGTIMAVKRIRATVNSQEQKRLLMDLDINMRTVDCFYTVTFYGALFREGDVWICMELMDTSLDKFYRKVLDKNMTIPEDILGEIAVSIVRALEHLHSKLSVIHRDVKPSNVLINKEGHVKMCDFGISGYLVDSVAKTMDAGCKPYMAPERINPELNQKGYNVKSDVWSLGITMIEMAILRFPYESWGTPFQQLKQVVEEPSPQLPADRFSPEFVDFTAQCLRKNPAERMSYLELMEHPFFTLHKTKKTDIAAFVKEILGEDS
Procedure: as §1

MEK1 = biological target: T7, MEK1 (Homo sapiens, UniProt Q02750); settings: 35 at 1 µM; read-out: % inhibition
T7 construct: purchased Eurofins DiscoverX (KINOMEscan)
T7 sequence (Q02750 whole entry): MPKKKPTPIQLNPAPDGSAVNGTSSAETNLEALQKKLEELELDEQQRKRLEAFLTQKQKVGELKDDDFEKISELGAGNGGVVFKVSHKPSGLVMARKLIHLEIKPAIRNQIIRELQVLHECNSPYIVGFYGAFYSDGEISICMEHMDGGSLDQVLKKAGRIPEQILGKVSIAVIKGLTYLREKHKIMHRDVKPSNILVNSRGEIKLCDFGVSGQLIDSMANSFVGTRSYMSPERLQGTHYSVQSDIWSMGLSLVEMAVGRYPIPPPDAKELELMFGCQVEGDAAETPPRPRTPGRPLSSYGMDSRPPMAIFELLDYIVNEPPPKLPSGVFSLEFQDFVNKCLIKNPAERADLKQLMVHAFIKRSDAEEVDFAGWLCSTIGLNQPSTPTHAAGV
Procedure: as §1

[2] = biological target: T8, ABL1(E255K)-phosphorylated (Homo sapiens, UniProt P00519, E255K); settings: 35 at 1 µM; read-out: % inhibition
T8 construct: purchased Eurofins DiscoverX (KINOMEscan)
Procedure: as §1

PIK3CA(E542K) = biological target: T9, PIK3CA(E542K) (Homo sapiens, UniProt P42336, E542K); settings: 35 at 1 µM; read-out: % inhibition
T9 construct: purchased Eurofins DiscoverX (KINOMEscan)
Procedure: as §1

LKB1 = biological target: T10, LKB1 (Homo sapiens, UniProt Q15831); settings: 35 at 1 µM; read-out: % inhibition
T10 construct: purchased Eurofins DiscoverX (KINOMEscan)
T10 sequence (Q15831 whole entry): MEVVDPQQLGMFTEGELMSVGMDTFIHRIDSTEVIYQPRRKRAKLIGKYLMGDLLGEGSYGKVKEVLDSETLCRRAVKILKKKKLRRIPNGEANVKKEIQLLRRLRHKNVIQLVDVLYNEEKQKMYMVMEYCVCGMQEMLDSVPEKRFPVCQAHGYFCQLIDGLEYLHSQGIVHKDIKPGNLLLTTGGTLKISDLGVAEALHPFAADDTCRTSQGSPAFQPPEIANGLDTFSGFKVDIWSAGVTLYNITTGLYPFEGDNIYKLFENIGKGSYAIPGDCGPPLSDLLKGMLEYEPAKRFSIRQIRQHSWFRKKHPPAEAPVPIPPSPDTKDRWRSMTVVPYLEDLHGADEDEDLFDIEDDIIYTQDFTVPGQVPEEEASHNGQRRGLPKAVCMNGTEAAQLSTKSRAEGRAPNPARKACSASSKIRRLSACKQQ
Procedure: as §1

[3] = biological target: T11, RPS6KA4(Kin.Dom.1-N-terminal) (Homo sapiens, UniProt O75676); settings: 35 at 1 µM; read-out: % inhibition
T11 construct: RPS6KA4(Kin.Dom.1-N-terminal); purchased Eurofins DiscoverX (KINOMEscan)
Procedure: as §1

EGFR(G719S) = biological target: T12, EGFR(G719S) (Homo sapiens, UniProt P00533, G719S); settings: 35 at 1 µM; read-out: % inhibition
T12 construct: purchased Eurofins DiscoverX (KINOMEscan)
Procedure: as §1

MYLK2 = biological target: T13, MYLK2 (Homo sapiens, UniProt Q9H1R3); settings: 35 at 1 µM; read-out: % inhibition
T13 construct: purchased Eurofins DiscoverX (KINOMEscan)
Procedure: as §1

EGFR(T790M) = biological target: T14, EGFR(T790M) (Homo sapiens, UniProt P00533, T790M); settings: 35 at 1 µM; read-out: % inhibition
T14 construct: purchased Eurofins DiscoverX (KINOMEscan)
Procedure: as §1

TIE1 = biological target: T15, TIE1 (Homo sapiens, UniProt P35590); settings: 35 at 1 µM; read-out: % inhibition
T15 construct: purchased Eurofins DiscoverX (KINOMEscan)
Procedure: as §1

EGFR(L861Q) = biological target: T16, EGFR(L861Q) (Homo sapiens, UniProt P00533, L861Q); settings: 35 at 1 µM; read-out: % inhibition
T16 construct: purchased Eurofins DiscoverX (KINOMEscan)
Procedure: as §1

JNK1 = biological target: T17, JNK1 (Homo sapiens, UniProt P45983); settings: 35 at 1 µM; read-out: % inhibition
T17 construct: purchased Eurofins DiscoverX (KINOMEscan)
Procedure: as §1

EGFR(L858R) = biological target: T18, EGFR(L858R) (Homo sapiens, UniProt P00533, L858R); settings: 35 at 1 µM; read-out: % inhibition
T18 construct: purchased Eurofins DiscoverX (KINOMEscan)
Procedure: as §1

MEK5 = biological target: T19, MEK5 (Homo sapiens, UniProt Q13163)
T19 construct: purchased Eurofins DiscoverX (KINOMEscan)
T19 sequence (Q13163 whole entry): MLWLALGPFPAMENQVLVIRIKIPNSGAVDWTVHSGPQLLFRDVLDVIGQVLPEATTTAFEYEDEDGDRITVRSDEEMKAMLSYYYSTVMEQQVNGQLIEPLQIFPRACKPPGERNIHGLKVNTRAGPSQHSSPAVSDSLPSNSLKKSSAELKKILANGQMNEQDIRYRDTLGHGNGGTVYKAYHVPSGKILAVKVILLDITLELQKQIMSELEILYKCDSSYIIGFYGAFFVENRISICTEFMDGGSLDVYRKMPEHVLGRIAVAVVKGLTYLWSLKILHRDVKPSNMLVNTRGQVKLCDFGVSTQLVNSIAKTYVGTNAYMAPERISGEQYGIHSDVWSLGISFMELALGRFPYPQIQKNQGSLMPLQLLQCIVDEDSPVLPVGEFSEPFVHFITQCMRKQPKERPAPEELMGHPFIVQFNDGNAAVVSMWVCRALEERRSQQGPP
Procedure: as §1

GRK4 = biological target: T20, GRK4 (Homo sapiens, UniProt P32298); settings: 35 at 1 µM; read-out: % inhibition
T20 construct: purchased Eurofins DiscoverX (KINOMEscan)
Procedure: as §1

ZAP70 = biological target: T21, ZAP70 (Homo sapiens, UniProt P43403); settings: 35 at 1 µM; read-out: % inhibition
T21 construct: purchased EuroFins DiscoverX (Fremont, CA, USA)
Procedure: as §1

MLCK = biological target: T22, MLCK (Homo sapiens, UniProt Q32MK0); settings: 35 at 1 µM; read-out: % inhibition
T22 construct: purchased Eurofins DiscoverX (KINOMEscan)
T22 sequence (Q32MK0 whole entry): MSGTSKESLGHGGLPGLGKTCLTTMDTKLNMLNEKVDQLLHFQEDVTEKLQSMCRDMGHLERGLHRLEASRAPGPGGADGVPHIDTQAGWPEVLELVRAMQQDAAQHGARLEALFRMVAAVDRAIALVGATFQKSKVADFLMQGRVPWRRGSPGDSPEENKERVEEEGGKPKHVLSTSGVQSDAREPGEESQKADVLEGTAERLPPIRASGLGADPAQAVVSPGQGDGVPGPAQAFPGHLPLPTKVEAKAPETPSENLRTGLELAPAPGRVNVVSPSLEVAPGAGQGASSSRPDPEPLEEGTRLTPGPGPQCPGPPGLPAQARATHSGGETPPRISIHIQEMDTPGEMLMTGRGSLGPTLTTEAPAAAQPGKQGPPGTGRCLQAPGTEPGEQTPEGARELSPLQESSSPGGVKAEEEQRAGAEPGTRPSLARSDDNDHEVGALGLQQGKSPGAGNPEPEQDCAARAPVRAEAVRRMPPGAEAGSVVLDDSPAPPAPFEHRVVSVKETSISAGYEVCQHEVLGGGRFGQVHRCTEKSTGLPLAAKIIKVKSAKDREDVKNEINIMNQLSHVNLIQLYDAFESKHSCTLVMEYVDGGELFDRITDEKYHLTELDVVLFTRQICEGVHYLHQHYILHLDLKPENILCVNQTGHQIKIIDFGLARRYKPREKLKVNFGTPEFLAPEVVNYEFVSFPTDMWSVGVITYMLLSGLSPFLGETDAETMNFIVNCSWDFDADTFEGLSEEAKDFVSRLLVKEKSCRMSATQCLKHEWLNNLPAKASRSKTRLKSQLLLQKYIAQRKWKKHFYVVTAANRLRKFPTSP
Procedure: as §1

DDR2 = biological target: T23, DDR2 (Homo sapiens, UniProt Q16832); settings: 35 at 1 µM; read-out: % inhibition
T23 construct: purchased Eurofins DiscoverX (KINOMEscan)
Procedure: as §1

[4] = biological target: T24, ABL1(H396P)-nonphosphorylated (Homo sapiens, UniProt P00519, H396P); settings: 35 at 1 µM; read-out: % inhibition
T24 construct: purchased Eurofins DiscoverX (KINOMEscan)
Procedure: as §1

MAP4K4 = biological target: T25, MAP4K4 (Homo sapiens, UniProt O95819); settings: 35 at 1 µM; read-out: % inhibition
T25 construct: purchased Eurofins DiscoverX (KINOMEscan)
Procedure: as §1

ARK5 = biological target: T26, ARK5 (Homo sapiens, UniProt O60285); settings: 35 at 1 µM; read-out: % inhibition
T26 construct: purchased Eurofins DiscoverX (KINOMEscan)
Procedure: as §1

[5] = biological target: T27, JAK1(JH1domain-catalytic) (Homo sapiens, UniProt P23458); settings: 35 at 1 µM; read-out: % inhibition
T27 construct: JAK1(JH1domain-catalytic); purchased Eurofins DiscoverX (KINOMEscan)
Procedure: as §1

RIOK3 = biological target: T28, RIOK3 (Homo sapiens, UniProt O14730); settings: 35 at 1 µM; read-out: % inhibition
T28 construct: purchased Eurofins DiscoverX (KINOMEscan)
Procedure: as §1

PRKD3 = biological target: T29, PRKD3 (Homo sapiens, UniProt O94806); settings: 35 at 1 µM; read-out: % inhibition
T29 construct: purchased Eurofins DiscoverX (KINOMEscan)
Procedure: as §1

PIK3CA = biological target: T30, PIK3CA (Homo sapiens, UniProt P42336); settings: 35 at 1 µM; read-out: % inhibition
T30 construct: purchased Eurofins DiscoverX (KINOMEscan)
Procedure: as §1

PCTK1 = biological target: T31, PCTK1 (Homo sapiens, UniProt Q00536); settings: 35 at 1 µM; read-out: % inhibition
T31 construct: purchased Eurofins DiscoverX (KINOMEscan)
Procedure: as §1

PAK4 = biological target: T32, PAK4 (Homo sapiens, UniProt O96013); settings: 35 at 1 µM; read-out: % inhibition
T32 construct: purchased Eurofins DiscoverX (KINOMEscan)
Procedure: as §1

KIT(V559D) = biological target: T33, KIT(V559D) (Homo sapiens, UniProt P10721, V559D); settings: 35 at 1 µM; read-out: % inhibition
T33 construct: purchased Eurofins DiscoverX (KINOMEscan)
Procedure: as §1

PRKD1 = biological target: T34, PRKD1 (Homo sapiens, UniProt Q15139); settings: 35 at 1 µM; read-out: % inhibition
T34 construct: purchased Eurofins DiscoverX (KINOMEscan)
T34 sequence (Q15139 whole entry): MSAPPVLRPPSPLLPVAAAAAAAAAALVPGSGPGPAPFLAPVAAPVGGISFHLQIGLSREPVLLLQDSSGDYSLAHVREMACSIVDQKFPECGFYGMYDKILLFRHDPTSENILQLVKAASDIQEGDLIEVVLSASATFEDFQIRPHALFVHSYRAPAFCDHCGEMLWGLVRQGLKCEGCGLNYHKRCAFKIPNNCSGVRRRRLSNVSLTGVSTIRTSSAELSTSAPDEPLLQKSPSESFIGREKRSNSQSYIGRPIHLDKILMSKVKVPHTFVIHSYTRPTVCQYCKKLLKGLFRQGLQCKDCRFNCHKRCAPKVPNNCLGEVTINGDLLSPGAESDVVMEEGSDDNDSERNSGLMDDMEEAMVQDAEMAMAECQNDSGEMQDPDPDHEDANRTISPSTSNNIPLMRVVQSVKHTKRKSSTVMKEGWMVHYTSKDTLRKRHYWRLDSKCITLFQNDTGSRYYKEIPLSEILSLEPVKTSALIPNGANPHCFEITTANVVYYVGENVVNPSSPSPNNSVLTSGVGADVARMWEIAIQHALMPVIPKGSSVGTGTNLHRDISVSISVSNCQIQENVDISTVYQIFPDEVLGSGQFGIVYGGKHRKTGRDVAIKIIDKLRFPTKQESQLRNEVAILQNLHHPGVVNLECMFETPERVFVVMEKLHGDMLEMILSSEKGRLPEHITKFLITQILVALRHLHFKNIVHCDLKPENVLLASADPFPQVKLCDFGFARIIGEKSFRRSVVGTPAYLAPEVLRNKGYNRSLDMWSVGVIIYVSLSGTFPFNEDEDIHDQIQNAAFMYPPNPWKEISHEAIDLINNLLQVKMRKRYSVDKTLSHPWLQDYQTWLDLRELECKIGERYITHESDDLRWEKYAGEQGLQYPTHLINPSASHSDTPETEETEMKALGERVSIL
Procedure: as §1

FLT3(R834Q) = biological target: T35, FLT3(R834Q) (Homo sapiens, UniProt P36888, R834Q); settings: 35 at 1 µM; read-out: % inhibition
T35 construct: purchased Eurofins DiscoverX (KINOMEscan)
Procedure: as §1

SBK1 = biological target: T36, SBK1 (Homo sapiens, UniProt Q52WX2); settings: 35 at 1 µM; read-out: % inhibition
T36 construct: purchased Eurofins DiscoverX (KINOMEscan)
Procedure: as §1

p38-alpha = biological target: T37, p38-alpha (Homo sapiens, UniProt Q16539); settings: 35 at 1 µM; read-out: % inhibition
T37 construct: purchased Eurofins DiscoverX (KINOMEscan)
Procedure: as §1

NDR2 = biological target: T38, NDR2 (Homo sapiens, UniProt Q9Y2H1); settings: 35 at 1 µM; read-out: % inhibition
T38 construct: purchased Eurofins DiscoverX (KINOMEscan)
Procedure: as §1

AKT3 = biological target: T39, AKT3 (Homo sapiens, UniProt Q9Y243); settings: 35 at 1 µM; read-out: % inhibition
T39 construct: purchased Eurofins DiscoverX (KINOMEscan)
Procedure: as §1

VRK2 = biological target: T40, VRK2 (Homo sapiens, UniProt Q86Y07); settings: 35 at 1 µM; read-out: % inhibition
T40 construct: purchased Eurofins DiscoverX (KINOMEscan)
Procedure: as §1

T1 sequence (Q99558 whole entry): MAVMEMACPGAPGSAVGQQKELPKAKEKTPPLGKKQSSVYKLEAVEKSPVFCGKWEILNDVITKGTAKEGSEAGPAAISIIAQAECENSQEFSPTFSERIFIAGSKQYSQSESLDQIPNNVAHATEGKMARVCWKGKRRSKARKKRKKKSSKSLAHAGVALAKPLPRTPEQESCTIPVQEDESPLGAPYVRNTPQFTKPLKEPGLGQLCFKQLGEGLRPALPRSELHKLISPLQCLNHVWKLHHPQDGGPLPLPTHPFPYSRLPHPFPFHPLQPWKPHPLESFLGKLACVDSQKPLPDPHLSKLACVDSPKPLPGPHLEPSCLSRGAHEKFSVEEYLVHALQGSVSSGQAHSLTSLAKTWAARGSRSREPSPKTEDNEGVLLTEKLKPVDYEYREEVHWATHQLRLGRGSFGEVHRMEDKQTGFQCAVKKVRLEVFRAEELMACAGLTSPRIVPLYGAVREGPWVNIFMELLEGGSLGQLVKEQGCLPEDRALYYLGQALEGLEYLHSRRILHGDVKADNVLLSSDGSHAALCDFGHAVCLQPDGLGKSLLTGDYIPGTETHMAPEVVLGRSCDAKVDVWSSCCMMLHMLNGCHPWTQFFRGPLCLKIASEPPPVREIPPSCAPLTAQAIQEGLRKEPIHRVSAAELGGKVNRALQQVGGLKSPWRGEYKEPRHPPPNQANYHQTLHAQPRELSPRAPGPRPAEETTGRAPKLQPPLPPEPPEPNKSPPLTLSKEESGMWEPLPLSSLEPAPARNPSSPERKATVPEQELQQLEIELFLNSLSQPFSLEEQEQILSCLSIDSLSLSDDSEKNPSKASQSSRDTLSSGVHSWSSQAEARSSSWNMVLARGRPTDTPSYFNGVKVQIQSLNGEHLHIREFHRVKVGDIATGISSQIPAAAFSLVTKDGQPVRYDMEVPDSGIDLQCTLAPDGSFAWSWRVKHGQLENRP

SMILES: Brc1ccc2nccc(Nc3ccc4cn[nH]c4c3)c2c1 [Compound 35, 6-Bromo-N-(1H-indazol-6-yl)quinolin-4-amine]
- activity at 1 µM (NIK): 100%
- activity at 1 µM (CDK11): 80%
- activity at 1 µM [1]: 100%
- activity at 1 µM (MYLK4): 100%
- activity at 1 µM (PRKCE): 95%
- activity at 1 µM (MEK3): 86%
- activity at 1 µM (MEK1): 71%
- activity at 1 µM [2]: 44%
- activity at 1 µM (PIK3CA(E542K)): 100%
- activity at 1 µM (LKB1): 100%
- activity at 1 µM [3]: 100%
- activity at 1 µM (EGFR(G719S)): 97%
- activity at 1 µM (MYLK2): 100%
- activity at 1 µM (EGFR(T790M)): 78%
- activity at 1 µM (TIE1): 100%
- activity at 1 µM (EGFR(L861Q)): 100%
- activity at 1 µM (JNK1): 83%
- activity at 1 µM (EGFR(L858R)): 100%
- activity at 1 µM (MEK5; 35 at 1 µM, read-out: % inhibition): 11%
- inhibition at 1 µM (MEK5; KinomeScan, screened at 1 μM, read-out: kinases inhibited at 1 μM: MEK5): 89%
- activity at 1 µM (GRK4): 100%
- activity at 1 µM (ZAP70): 100%
- activity at 1 µM (MLCK): 100%
- activity at 1 µM (DDR2): 100%
- activity at 1 µM [4]: 86%
- activity at 1 µM (MAP4K4): 100%
- activity at 1 µM (ARK5): 100%
- activity at 1 µM [5]: 100%
- activity at 1 µM (RIOK3): 100%
- activity at 1 µM (PRKD3): 100%
- activity at 1 µM (PIK3CA): 100%
- activity at 1 µM (PCTK1): 98%
- activity at 1 µM (PAK4): 100%
- activity at 1 µM (KIT(V559D)): 100%
- activity at 1 µM (PRKD1): 100%
- activity at 1 µM (FLT3(R834Q)): 83%
- activity at 1 µM (SBK1): 99%
- activity at 1 µM (p38-alpha): 100%
- activity at 1 µM (NDR2): 89%
- activity at 1 µM (AKT3): 100%
- activity at 1 µM (VRK2): 100%
